This passage reports Km and kcat results from paper PMC12247511, “Evolutionary diversification of acyl-CoA synthetases underpins hydrophobic barrier formation across diverse tomato tissues and beyond” (Horticulture Research, 2025).

The target in one series is T1, SlLACS2 (Solanum lycopersicum, UniProt Z9EVN9B4R8).
T1 construct: full-length ORF, His-tagged (pET28b, BamHI/SalI), E. coli Rosetta 2 (DE3), Ni-NTA
T1 sequence (Z9EVN9B4R8 1-659): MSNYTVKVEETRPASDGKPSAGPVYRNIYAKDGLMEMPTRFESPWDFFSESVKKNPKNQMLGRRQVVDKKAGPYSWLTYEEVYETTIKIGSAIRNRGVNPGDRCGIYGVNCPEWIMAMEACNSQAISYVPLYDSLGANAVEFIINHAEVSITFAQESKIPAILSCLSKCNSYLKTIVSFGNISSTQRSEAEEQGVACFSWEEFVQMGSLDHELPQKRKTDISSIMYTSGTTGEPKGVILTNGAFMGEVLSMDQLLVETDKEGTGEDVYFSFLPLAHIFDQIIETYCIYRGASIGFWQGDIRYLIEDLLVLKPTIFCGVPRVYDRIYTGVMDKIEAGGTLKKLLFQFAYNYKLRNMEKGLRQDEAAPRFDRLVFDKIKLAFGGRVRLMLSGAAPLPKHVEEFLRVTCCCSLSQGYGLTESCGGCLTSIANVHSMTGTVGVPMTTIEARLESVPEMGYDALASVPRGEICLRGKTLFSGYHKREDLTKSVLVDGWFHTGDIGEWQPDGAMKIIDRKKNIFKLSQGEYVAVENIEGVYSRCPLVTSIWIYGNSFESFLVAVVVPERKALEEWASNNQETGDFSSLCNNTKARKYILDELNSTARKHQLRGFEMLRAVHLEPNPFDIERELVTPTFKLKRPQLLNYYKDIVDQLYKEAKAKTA
Put plainly: coupled myokinase/pyruvate kinase/lactate dehydrogenase assay, NADH at […] nm. The series is classed as biochemical. The settings on record: 0.1 M Tris-HCl pH 7.5, 30 °C, 5 mM ATP, 0.5 mM CoA, 10 mM MgCl2, 2 mM DTT; fatty acid 0-1 mM from stock in 5% Triton X-100.

Another series has as its system T2, MeLACS.
T2 construct: full-length ORF, His-tagged (pET28b, BamHI/SalI), E. coli Rosetta 2 (DE3), Ni-NTA
The series is described as above. The class given is biochemical, Mesotaenium endlicherianum. Particulars: 0.1 M Tris-HCl pH 7.5, 30 °C, 5 mM ATP, 0.5 mM CoA, 10 mM MgCl2, 2 mM DTT; fatty acid 0-1 mM from stock in 5% Triton X-100.

Another series has as its system T3, MvLACS.
T3 construct: full-length ORF, His-tagged (pET28b, BamHI/SalI), E. coli Rosetta 2 (DE3), Ni-NTA
The series is described as above. The series is classed as biochemical, Mesostigma viride. Particulars: 0.1 M Tris-HCl pH 7.5, 30 °C, 5 mM ATP, 0.5 mM CoA, 10 mM MgCl2, 2 mM DTT; fatty acid 0-1 mM from stock in 5% Triton X-100.

Substrate in series [1]: CCCCCCCCCCCCCCCCCC(=O)O
Put plainly: purified protein. The class given is biochemical, Solanum lycopersicum. The settings on record: 0.1 M Tris-HCl pH 7.5, 30 °C, 5 mM ATP, 0.5 mM CoA, 10 mM MgCl2, 2 mM DTT, fatty acid 0-1 mM from stock in 5% Triton X-100.

Substrate in series [2]: CCCCCCCCCCCCCCCC(=O)O
Put plainly: purified protein. Particulars: 0.1 M Tris-HCl pH 7.5, 30 °C, 5 mM ATP, 0.5 mM CoA, 10 mM MgCl2, 2 mM DTT, fatty acid 0-1 mM from stock in 5% Triton X-100. The class given is biochemical, Solanum lycopersicum.

On to `CCCCCCCCCCCCCCCC(=O)O` [palmitate (C16:0)], for which the Km (as a rule, the concentration of substrate that gives half-maximal velocity) at SlLACS2 is around 7 µM; in the series on MeLACS, around 180 µM; in the series with MvLACS, around 32 µM.
In the same order, the values of `CCCCCCCCCCCCCCCCCC(=O)O` [sterate (C18:0)] are around 6 µM, around 166 µM and around 40 µM.

B1: SlLACS1 (Solanum lycopersicum) (protein)
chain: MSMNKFGLKVEEGKEGKNGEPSIGPVYRNPIAKNGFPSADPDLSTAWQLFRSAVEKYPGNRMLGWRDFKDGKWGPYNWKTYKEAYEETLQTGSALRAHGIEPGARIGIYGANCPQWIVAMEACSAHSLICVPLYDTLGSGAVDFIIEHAEIDIVFVQDKKVKELLNAECTHAKRLKLIVCFTLLQQEEKDKAVSMNIKPYSWNEFLNMGKENPSEPSPPQPLDICTIMYTSGTSGEPKGVILTHENMTASVTGVDHFMEEFEDKMTVDDVYISFLPLAHILDRMIEEFFFHRGASVGYFHGNINEIQEDMMELKPTFLAGVPRVYEKVHEGVLKALEELNPFRRHMFHVLYNFKLKWMNLGYKQKYASRLADLLAFRKVKNRLGGRIRLIVSGGAPLSTEVEEFLRVTSCGFVLQGYGLTETCGLATIGHPDEMCMLGTVGPPFVFTEVRLEEVPEMGYDPLADPSRGEICVRGRTTFTGYYKNPELTREAIKDGWFHTGDIGEMMPNGVVKVIDRKKNVIKLSQGEYVALEYLEKVYAIAPIVEDIWVYGDSFKSMLIAVVAPHEGNTKKWADKNGHKGSITELCSLQDLNQYVLLELKSAAERNKLRGFENIKGVILEPQPFEFDKELVTATMKKRRERLLKRYKLEIDDLYKRLNAAAKR
notes: full-length ORF, His-tagged (pET28b, BamHI/SalI), E. coli Rosetta 2 (DE3), Ni-NTA
Take B1: in “purified protein [1]”, the Km stood at 9.6 ± 1.4 µM and the kcat (as a rule, the maximal rate divided by the concentration of active sites) turned out to be 0.08 ± 0.0033 s⁻¹. In “purified protein [2]”, the Km amounted to 42.4 ± 3.8 µM and the kcat was 0.102 ± 0.01 s⁻¹.
